Reference: patent publication US7112715B2, “Transgenic mouse for targeted recombination mediated by modified Cre-ER” (Gie-Cerbm, Centre Europeen de Recherche en Biologie et en …, priority 2000, dated 2006)

Experiments:
[1] = system: skin papilloma formation induced by DMBA/TPA; experiment: Antitumoral effect of topical retinoic acid on DMBA/TPA-induced skin papilloma; assay type: in vivo, mouse; conditions: for average number of tumors: ~25 weeks of DMBA/TPA treatment
Description: (§1) A single dose of 7,12-dimethylbenz(a)anthracene (DMBA) (5 μg in 100 μl acetone) was applied on the dorsal skin of 10–14 week old mice, 7 weeks before or 16 days after the first Tam or oil (vehicle) treatments. 12-0-tetradecanoylphorbol-13-acetate (TPA) (5 μg in 200 μl acetone) was applied twice a week for 25 to 30 weeks, starting one week after DMBA application. CT and RXRα^ep−/− mice were shaved 7 and 2 days before DMBA treatment, and every second week for 30 and 15 weeks, respectively. 8 weeks after DMBA treatment, all-trans retinoic acid (t-RA, 20 nmoles in ethanol) or vehicle was topically applied 15 min before each TPA application. • 1.10—Determination of the number and size of the tumors
(§2) The length of the papillomas and the diameter of the melanocytic were measured with a Vernier calliper on isofluorane anesthesised mice.

melanocytic growths = experiment: Melanocytic growths and lymph node melanocytes after DMBA or DMBA/TPA treatment of CT and RXRα^ep−/− mice; assay type: in vivo, mouse; conditions: for mice with enlarged and pigmented subiliac lymph nodes: 30 weeks
Description: A. Dorsal view of CT (K14-Cre-ER^T2(0/0)/RXRα^L2/L2) (left) and RXRα^ep−/− (right) mice 25 weeks after DMBA treatment. Arrows point to some or the melanocytic growths. B. Number of melanocytic growths in skin of CT and RXRα^ep−/− mice 30 weeks after DMBA and DMBA/TPA treatments, as indicated. Values are expressed as mean +/−SEM (n=6). *, p<0.05; ***, p<0.001, C. Size distribution of melanocytic growths in CT and RXRα^ep−/− mice. The number of 1–2 and 2–4 mm melanocytic growths was determined on CT and RXRα^ep−/− mice, 30 weeks after DMBA and DMBA/TPA treatments, as indicated. Values are expressed as mean +/−SEM (m=6).
Photograph of subiliac lymph nodes from CT (a and e) and RXRα^ep−/− (b and f) mice taken 30 weeks after DMBA and DMBA/TPA treatment, respectively. Hematoxylin and eosin stained 5 μm paraffin sections of CT (c and g) and RXRα^ep−/− (d and h) mice after DMBA and DMBA/TPA treatments, respectively. Scale bar, 33 μm.
Subiliac lymph nodes were isolated 30 weeks after DMBA application, fixed in 4% paraformaldehyde, photographed and embedded in paraffin. 5 μm-thick sections were stained with hematoxylin and eosin. • 1.8—Assay of blood parameters
as §1, §2

Cre-ER^T2 = Cre-ER^T2 (Homo sapiens, UniProt P03372, G400V/L544A/M543A); conditions: K5-Cre-ER^T2 mice; OHT dose 0.001 mg; day 2
Chain of Cre-ER^T2 (P03372 with tags, fused parts or gaps G400V/M543A/L544A): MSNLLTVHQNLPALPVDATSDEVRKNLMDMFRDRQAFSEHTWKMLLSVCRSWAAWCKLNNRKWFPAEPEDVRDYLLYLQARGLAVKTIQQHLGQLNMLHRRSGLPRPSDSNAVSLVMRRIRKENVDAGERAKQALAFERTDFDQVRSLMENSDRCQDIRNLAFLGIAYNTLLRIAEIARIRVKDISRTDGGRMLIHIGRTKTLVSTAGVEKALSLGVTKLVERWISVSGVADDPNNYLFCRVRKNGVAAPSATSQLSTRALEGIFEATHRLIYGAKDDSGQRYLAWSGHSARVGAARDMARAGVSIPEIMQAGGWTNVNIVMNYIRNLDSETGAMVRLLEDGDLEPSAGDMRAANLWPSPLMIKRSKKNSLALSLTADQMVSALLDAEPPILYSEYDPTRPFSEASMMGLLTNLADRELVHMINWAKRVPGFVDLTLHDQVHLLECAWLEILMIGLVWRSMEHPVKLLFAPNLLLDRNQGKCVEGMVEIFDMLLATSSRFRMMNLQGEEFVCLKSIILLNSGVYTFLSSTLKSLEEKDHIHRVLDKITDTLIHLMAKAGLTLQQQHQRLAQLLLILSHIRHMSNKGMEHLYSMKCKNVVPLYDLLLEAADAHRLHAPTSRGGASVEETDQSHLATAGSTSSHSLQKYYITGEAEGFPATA
Description: (§3) Immunohistochemistry of the chimeric Cre recombinase on sections of the epidermis of K5-Cre-ER^T2 and K5-Cre-ER^T3 mice treated either with 0.1 mg, 0.01 mg or 0.001 mg of OHT and analyzed two days (D 2) after the start of the treatment (D 0). The red color corresponds to labeling with the anti-Cre antibody directed against the Cre protein, and the Cyan color corresponds to DAPI.
(§4) After fixing in 2% paraformaldehyde, frozen sections of 10 μm are blocked in 5% normal goat serum (Vector Laboratories) incubated with the rabbit polyclonal antibody anti-MK6 (Babco). After washing in PBS/0.1% Tween 20, the sections are incubated with the donkey anti-rabbit IgG antibody conjugated with CY3 (Jackson Immuno Research) and then mounted in the Vectashield medium (Vector Laboratories) containing DAPI (4′,6-diamidino-2-phenylindole dihydrochloride; Boehringer Mannheim) (Brocard et al., 1997). The anti-Cre antibodies are used according to Indra et al. (1999). • 1.6—Immunohistochemistry
(§5) The sensitivity to OHT was tested in a first instance by analyzing the intracellular location of the chimeric proteins.

Cre-ER^T3 [2] = molecular target: T1, Cre-ER^T3 (Homo sapiens, UniProt P03372, L544A/M543A); conditions: K5-Cre-ER^T3 mice; OHT dose 0.001 mg; day 2
T1 sequence (P03372 with tags, fused parts or gaps M543A/L544A): as the sequence (P03372 with tags, fused parts or gaps G400V/M543A/L544A) above, with V465G counted along it
Description: as §3, §4, §5

Cre-ER^T3 [3] = molecular target: T1, Cre-ER^T3; conditions: 1 and 0.1 mg of OHT; day 15
Description: Activity of β-galactosidase on sections of the epidermis of the tail of K5-Cre-ER^T2(tg/0)/Rosa^f1/1 and K5-Cre-ER^T3(tg/0)/Rosa^f1/+ mice treated with 1 mg, 0.1 mg, 0.01 mg and 0.001 mg of QHT. The analyses are carried out on the fifteenth day after the start of the treatment (D0).
as §5

mouse ER LBD (mER) G525R = mouse ER LBD (mER) G525R (Mus musculus, UniProt P19785, G525R); conditions: cited from earlier work
Chain of mouse ER LBD (mER) G525R (P19785 whole entry G525R, the tested form may be a part): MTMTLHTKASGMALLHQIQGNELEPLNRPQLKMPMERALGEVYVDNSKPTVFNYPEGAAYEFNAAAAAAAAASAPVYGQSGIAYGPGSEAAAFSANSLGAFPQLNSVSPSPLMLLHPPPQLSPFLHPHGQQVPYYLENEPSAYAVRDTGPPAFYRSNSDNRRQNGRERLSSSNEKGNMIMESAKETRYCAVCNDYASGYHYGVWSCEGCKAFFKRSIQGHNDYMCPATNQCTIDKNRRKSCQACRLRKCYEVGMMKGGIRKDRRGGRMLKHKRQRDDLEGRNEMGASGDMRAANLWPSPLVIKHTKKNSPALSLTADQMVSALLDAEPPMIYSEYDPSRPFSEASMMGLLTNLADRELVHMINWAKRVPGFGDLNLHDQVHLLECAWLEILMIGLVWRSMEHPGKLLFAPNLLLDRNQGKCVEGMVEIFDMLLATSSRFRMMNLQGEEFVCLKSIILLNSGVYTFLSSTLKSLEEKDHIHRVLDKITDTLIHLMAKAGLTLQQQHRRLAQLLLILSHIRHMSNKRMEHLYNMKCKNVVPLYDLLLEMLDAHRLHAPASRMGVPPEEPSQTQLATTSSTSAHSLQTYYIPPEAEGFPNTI

[4] = system: fusion protein between the recombinase Cre and the ligand-binding domain of the mutated human nuclear estrogen receptor; conditions: varies between a few percents and 80%; five infections of 8 mg; cited from earlier work

Which results are given for CC1=C(/C=C/C(C)=C/C=C/C(C)=C/C(=O)O)C(C)(C)CCC1 [t-RA, all-trans retinoic acid]?
tumor formation ([1]; CT mice): efficiently inhibited; size of the papilloma after treatment ([1]; CT mice, 25 weeks of RA treatment, from 2–3 mm, in 3 out of 8 papillomas of 6 mice): 1 mm; size of the tumors ([1]; RA treated CT mice): below 2 mm; average number of tumors ([1]; RA treated CT mice): 1; tumors larger than 12 mm ([1]; RA treated RXRα^ep−/− mice): ~11%; average number of tumors ([1]; RA treated RXRα^ep−/− mice): ~17; change in size of the papilloma ([1]; RXRα^ep−/− mice): no decrease in size; number and size of melanocytic growths, RXRα^ep−/− compared to CT mice ([1]; after RA treatment): increased; skin papilloma formation induced by DMBA/TPA ([1]; topical, female and male wild-type 129Sv): efficiently blocked

For Cc1c2ccccc2c(C)c2c1ccc1ccccc12 [DMBA, 7,12-dimethylbenz(a)anthracene], which “induction of melanocytic growths, RXRα^ep−/− versus CT mice” value (melanocytic growths; DMBA alone) is on record?
The value was ~7 fold.

What about the “mice with enlarged and pigmented subiliac lymph nodes” value (melanocytic growths; DMBA, CT mice) of the same molecule?
The value was 0/4.

What about the “mice with enlarged and pigmented subiliac lymph nodes” value (melanocytic growths; DMBA, RXRα^ep−/− mice) of the same molecule?
The value was “two out of 4”.

And the “melanosomes per melanocyte, RXRα^ep−/− versus CT melanocytes” value (melanocytic growths; DMBA, electron microscopy)?
Its value is ~10 fold.

What does the source list for 4-hydroxytamoxifen [OHT]?
nuclei labeled with anti-Cre antibodies in the skin (Cre-ER^T2): no positive nucleus; nuclei strongly labeled with anti-Cre antibodies in the basal layer of the epidermis (Cre-ER^T3 [2]): about ⅓; excision levels, K5-Cre-ER^T3 versus K5-Cre-ER^T2 line (Cre-ER^T3 [3]): similar; effect of the G525R mutation on binding (mouse ER LBD (mER) G525R): without adversely affecting the binding; efficiency of site-specific recombination in cells expressing the fusion protein [4]: ≤ 80%
